Source: BindingDB's records for doi:10.1016/j.bmc.2011.05.013 (University of Auckland, 2011)
pIC50: −log10 of the molar value.

assay: Inhibition of recombinant perforin mediated lysis of human Jurkat cells pre-incubated for 30 mins with perforin followed by incubation with Jurkat cells at 37 degC for 4 hrs in presence of 0.1% BSA by [51Cr] release assay

Point of comparison: N#Cc1c(-c2ccc(C(=O)NCCO)cc2)c(C#N)c2nc3ccccc3n2c1N, pIC50 5.51. Against it:
- CCNC(=O)c1ccc(-c2c(C#N)c(N)n3c(nc4ccccc43)c2C#N)cc1 — within 0.2 log units, 5.50
- CNC(=O)c1ccc(-c2c(C#N)c(N)n3c(nc4ccccc43)c2C#N)cc1 — 0.47 log units higher, 5.98
- Cc1cc2nc3c(C#N)c(-c4ccc(OCC(N)=O)cc4)c(C#N)c(N)n3c2cc1C — within 0.2 log units, 5.45
- N#Cc1c(-c2ccc(OCC(N)=O)cc2)c(C#N)c2nc3ccccc3n2c1N — 0.23 log units lower, 5.28
- N#Cc1c(-c2ccc(OCCO)cc2)c(C#N)c2nc3ccccc3n2c1N — within 0.2 log units, 5.54
- N#Cc1c(-c2ccc(C(=O)NCCCO)cc2)c(C#N)c2nc3ccccc3n2c1N — within 0.2 log units, 5.38
- CN(C)C(=O)COc1ccc(-c2c(C#N)c(N)n3c(nc4ccccc43)c2C#N)cc1 — 0.35 log units lower, 5.16
- N#Cc1c(-c2ccc(C(N)=O)cc2)c(C#N)c2nc3ccccc3n2c1N — within 0.2 log units, 5.52
- N#Cc1c(-c2ccc(OCC(N)=O)cc2)c(C#N)c2nc3c(Cl)cccc3n2c1N — 0.26 log units lower, 5.25
- Cc1ccc2c(nc3c(C#N)c(-c4ccc(OCC(N)=O)cc4)c(C#N)c(N)n32)c1C — 0.23 log units lower, 5.28
- CCNC(=O)COc1ccc(-c2c(C#N)c(N)n3c(nc4ccccc43)c2C#N)cc1 — 0.38 log units lower, 5.13
- N#Cc1c(-c2ccc(C(=O)NCC(O)CO)cc2)c(C#N)c2nc3ccccc3n2c1N (configuration not stated) — within 0.2 log units, 5.49
- CC(C)NC(=O)COc1ccc(-c2c(C#N)c(N)n3c(nc4ccccc43)c2C#N)cc1 — 0.63 log units lower, 4.88
- CNC(=O)COc1ccc(-c2c(C#N)c(N)n3c(nc4ccccc43)c2C#N)cc1 — within 0.2 log units, 5.34
- CCCNC(=O)COc1ccc(-c2c(C#N)c(N)n3c(nc4ccccc43)c2C#N)cc1 — 0.65 log units lower, 4.86
- Cc1cc2nc(C(C#N)=Cc3ccc(OCC(N)=O)cc3)[nH]c2cc1C — 0.22 log units lower, 5.29
- N#Cc1c(-c2ccc(OCC(=O)NCCO)cc2)c(C#N)c2nc3ccccc3n2c1N — 0.43 log units lower, 5.08
- N#Cc1c(-c2ccc(C(=O)NCCN3CCOCC3)cc2)c(C#N)c2nc3ccccc3n2c1N — 0.51 log units lower, 5.00
- COc1cccc2c1nc1c(C#N)c(-c3ccc(OCC(N)=O)cc3)c(C#N)c(N)n12 — 0.38 log units lower, 5.13
- Cc1cccc2c1nc1c(C#N)c(-c3ccc(OCC(N)=O)cc3)c(C#N)c(N)n12 — 0.35 log units lower, 5.16
- N#CC(=Cc1ccc(OCC(N)=O)cc1)c1nc2cccc(Cl)c2[nH]1 — 0.34 log units lower, 5.17
- CNC(=O)CCc1ccc(-c2c(C#N)c(N)n3c(nc4ccccc43)c2C#N)cc1 — lower, < 4.70
- CN(C)C(=O)CCc1ccc(-c2c(C#N)c(N)n3c(nc4ccccc43)c2C#N)cc1 — lower, < 4.70
- CC(O)CNC(=O)COc1ccc(-c2c(C#N)c(N)n3c(nc4ccccc43)c2C#N)cc1 (configuration not stated) — lower, < 4.70
- N#Cc1c(-c2ccc(OCC(=O)NCCCO)cc2)c(C#N)c2nc3ccccc3n2c1N — lower, < 4.70
- N#Cc1c(-c2ccc(OCC(=O)NCC(O)CO)cc2)c(C#N)c2nc3ccccc3n2c1N (configuration not stated) — lower, < 4.70
- CN(C)C(=O)c1ccc(-c2c(C#N)c(N)n3c(nc4ccccc43)c2C#N)cc1 — lower, < 4.70
- CN(C)CCNC(=O)c1ccc(-c2c(C#N)c(N)n3c(nc4ccccc43)c2C#N)cc1 — lower, < 4.70
- N#CC(=Cc1ccc(OCC(N)=O)cc1)c1nc2ccccc2[nH]1 — lower, < 4.70
- COc1cccc2[nH]c(C(C#N)=Cc3ccc(OCC(N)=O)cc3)nc12 — lower, < 4.70
- Cc1ccc2nc(C(C#N)=Cc3ccc(OCC(N)=O)cc3)[nH]c2c1C — lower, < 4.70
- N#Cc1c(-c2ccc(OCC(=O)NCCc3ccncc3)cc2)c(C#N)c2nc3ccccc3n2c1N — 0.51 log units lower, 5.00
- N#Cc1c(-c2ccc(C(=O)NCCc3ccncc3)cc2)c(C#N)c2nc3ccccc3n2c1N — 0.53 log units lower, 4.98
- Cc1cccc2[nH]c(C(C#N)=Cc3ccc(OCC(N)=O)cc3)nc12 — lower, < 4.70
- CC(O)CNC(=O)c1ccc(-c2c(C#N)c(N)n3c(nc4ccccc43)c2C#N)cc1 (configuration not stated) — 0.25 log units lower, 5.26
- N#Cc1c(-c2ccc(C(=O)NCCN3CCCCC3)cc2)c(C#N)c2nc3ccccc3n2c1N — lower, < 4.70
